Assay results published in PMC7619385 (ACS infectious diseases, 2025).

Key:
NLuc::LmxCLK1 [1] = molecular target: T1, NLuc::LmxCLK1 (Leishmania mexicana, UniProt E9AMP2); assay: cell-based; type: cell-based
Method in brief: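 NanoBRET tracer displacement in live cells expressing NLuc-tagged CLK1, test compounds at 10 µM fixed, 1% DMSO final. Acceptor/donor emission (610/460 nm) ratio gives mBRET, converted to blank-corrected probe occupancy (%); probe KD from single-site saturation binding fits.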

NLuc::LmxCLK1 [2] = molecular target: T1, NLuc::LmxCLK1; assay: In vitro BRET with purified NLuc::LmxCLK1; type: binding
Experimental: (§1) in vitro BRET used purified NLuc-LmxCLK1 in Kinase Buffer (50 mM HEPES, 1 mM EGTA, 10 mM MgCl^2, 2 mM DTT and 0.01% Tween-20) aliquoted into 96-well plates (Greiner #655904). In cell BRET assays used engineered L. mexicana (promastigotes or intramacrophage amastigotes) expressing NLuc-LmxCLK1 in cell media aliquoted into 96-well plates (Greiner, #655083). For tracer titration experiments, BRET probes were serially diluted from 100% DMSO stocks – first in 100% DMSO to 100x final assay concentration, and then in Tracer Dilution Buffer (TDB - 12.5 mM HEPES, pH 7.5; 31.25% PEG 400) to 20x the final assay concentration. Serially diluted probes (5 µL) were added to 85 µL of cells in culture media or 85 µL of purified protein. Final well volumes were adjusted to 100 µL with sterile Opti-MEM™ I Reduced Serum Medium (Thermo-Scientific) – for wells containing cells; or Kinase Buffer - for wells containing purified protein. For tracer displacement assays, samples were prepared as above, but final volume was brought to 100 µL by addition of vehicle or serially-diluted test compounds. Final DMSO concentration in these assays was 1%. Plates were incubated for 30 min at 25 °C (purified protein and promastigotes) or 34 °C (intramacrophage amastigotes), and 50 µL of Promega cocktail containing furimazine and NLuc extracellular inhibitor (catalog #N2161) were added to each well. Light emissions at 460+10 nm (BRET donor) and at 610+20 nm (BRET acceptor) were sequentially recorded (integration time = 0.5 s, gain = 3600) using a luminometer (BMG LABTECH Clariostar or Biotek Synergy HT). BRET values are reported in milli-BRET (mBRET) units (mBU), obtained by dividing the acceptor luminescence by the donor luminescence and multiplying the result by a factor of 1,000. BRET values were converted to blank-corrected probe occupancies (%) according to equation [1]: (1) Probeoccupancy(%)=X−Z/Y−Z×100 where X = mBRET value in the presence of the test compound and the probe, Y = mBRET value in the presence of probe only, and Z = mBRET value in the absence of probe and test compound.
To determine apparent dissociation constants from saturation binding curves, mBRET values were plotted as a function of probe concentration, and probe affinity values (KD) were determined using the hyperbolic dose-response equation for binding to a single site available in GraphPad Prism (v. 9.1.0).

NLuc::LmxCLK1 [3] = molecular target: T1, NLuc::LmxCLK1; assay: In-cell BRET target engagement in intracellular amastigotes expressing NLuc::LmxCLK1; type: cell-based
Experimental: L. mexicana (strain MNYC/BZ/62/M379) promastigotes were cultivated in medium 199 (M199) (Earle’s Salts - Gibco) supplemented with 10% (v/v) heat-inactivated fetal calf serum (HIFCS – Cultilab) and 1% Penicillin/Streptomycin solution (Sigma-Aldrich) at 26 °C. Phenotypic drug response assays in null mutant and point-mutation mutant lines were performed in HOMEM supplemented with 10% (v/v) heat-inactivated fetal calf serum (HIFCS – Gibco). THP-1 monocytes were differentiated in adherent macrophages with 50 ng of PMA for 72 h at 37 °C and 5% CO2 before infection with stationary phase promastigotes (ratio 10 promastigotes:1 macrophage) for 6 h, followed by washing to remove non-internalized Leishmania. Infected macrophages were incubated at 34 °C and 5% CO2 for 48 h in RPMI (Gibco) supplemented with 10% HIFCS and 1% Penicillin/Streptomycin solution.
as §1

T1 sequence (E9AMP2 entry or part of it): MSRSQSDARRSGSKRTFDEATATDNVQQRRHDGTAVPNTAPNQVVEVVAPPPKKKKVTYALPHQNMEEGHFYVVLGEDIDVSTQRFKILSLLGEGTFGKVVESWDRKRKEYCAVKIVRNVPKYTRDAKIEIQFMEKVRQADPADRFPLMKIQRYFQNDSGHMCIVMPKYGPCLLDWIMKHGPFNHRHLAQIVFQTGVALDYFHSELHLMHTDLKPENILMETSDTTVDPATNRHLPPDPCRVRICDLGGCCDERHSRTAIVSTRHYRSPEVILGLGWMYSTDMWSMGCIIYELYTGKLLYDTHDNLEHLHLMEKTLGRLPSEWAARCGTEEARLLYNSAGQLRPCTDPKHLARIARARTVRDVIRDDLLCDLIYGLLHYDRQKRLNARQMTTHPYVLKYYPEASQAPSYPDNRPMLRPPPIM

In the case of Cc1ccc(C(=O)Nc2ccc(CN3CCN(CCCNC(=O)c4ccc(C(=O)O)c(-c5c6ccc(=O)cc-6oc6cc(O)ccc56)c4)CC3)c(C(F)(F)F)c2)cc1C#Cc1cnc2[nH]ncc2c1 [SV366], the EC80 (NLuc::LmxCLK1 [1]; 0.5 h, read-out: EC80 tracer titration in promastigotes) is reported as 1050 nM, the EC50 (NLuc::LmxCLK1 [1]; read-out: EC50 tracer titration in promastigotes, live promastigotes) is reported as 383 nM and the EC80 (NLuc::LmxCLK1 [2]; 0.5 h, read-out: EC80 tracer titration, purified NLuc-LmxCLK1) is reported as 59.4 nM. It also gave an EC50 (NLuc::LmxCLK1 [2]; read-out: EC50 tracer titration, purified NLuc::LmxCLK1, BRET probe binding) of 8.4 nM, a Kd (NLuc::LmxCLK1 [2]; saturation binding to purified NLuc::LmxCLK1) of 5.9 nM and an EC80 (NLuc::LmxCLK1 [3]; 0.5 h, read-out: EC80 tracer titration in intracellular amastigotes) of 200 nM. For the same molecule, the EC50 (NLuc::LmxCLK1 [3]; read-out: EC50 tracer titration in intracellular amastigotes, infected macrophages) was 72.6 nM and the “Lower EC50 in intracellular amastigotes compared to promastigotes” value (NLuc::LmxCLK1 [3]; tracer titration) was “approximately 5 fold”.
